The results in this text go back to ChEMBL document CHEMBL1201862, “PubChem BioAssay data set” (2004).

Usually IC50 stands for the point on the concentration scale where inhibition reaches its midpoint. For orientation: EC50 means the concentration giving half of the maximal effect. The AC50 is the concentration giving half of the maximal activity seen.

Activity calls are given as the source filed them.

Assay [1] in a line: decrease of insulin promoter-GFP reporter – imaging, high-content screening, mouse beta cells (AID 1628). Conditions: MIN6. The class given is functional.
Assay [2] is described as follows: MIN6 cell viability loss – mouse insulinoma, cytotoxicity control, dose response (AID 2122).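 Further: confirmatory high-throughput counterscreen run to flag cytotoxic compounds.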 The class given is functional.
Assay [3] in a line: Trypanosoma cruzi growth suppression in host cells – NIH3T3 host cells, beta-gal luminescence, confirmation (AID 2044).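 Further: intracellular parasites grown in NIH/3T3 mouse fibroblasts as host cells; luminescent beta-galactosidase reporter signal from transgenic T. cruzi replicating inside host cells; inhibitors lower the luminescence signal.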 The assay is classed as functional, cell-based.
Assay [4] can be described thus: NIH3T3 cell viability loss – ATP luminescence, mouse fibroblasts, counter-screen, dose response (AID 2010).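 Further: cells exposed to compound for about 90 hours before reading.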 The assay is classed as functional, cell-based. (In general: Counterscreens check selectivity or assay interference.)
In assay [5] the test system is Vero. The experiment in a line: cells. The assay is classed as functional. The note with it: Chlorocebus sabaeus.
Assay [6] deals with Vero. The assay is described as follows: cells. The class given is functional, cell-based. The note with it: Chlorocebus sabaeus.
A short description of assay [7]: Luminescent dose response cell-based high throughput screening assay for inhibitors of the Janus kinase 2 mutant JAK2V617F. [Related pubchem assays: 1446 (Primary screen.), 1521 (Confirmation assay.), 1486 (Counter screen.)]. The class given is functional.
Assay [8] relates to HEK293. The assay is described as follows: inhibition of NOD1-driven NF-kB reporter – cell-based, luminescence, uHTS, primary screen (AID 1578). The assay is classed as functional. The note with it: Homo sapiens.
Assay [9] concerns HEK293. The experiment in a line: cells. The assay is classed as functional, cell-based. Conditions: Homo sapiens.
For assay [10], the system named is HEK293. The experiment in a line: cells. Conditions: Homo sapiens. The assay is classed as functional, cell-based. This is another data set of the same source.
For assay [11], the system named is HEK293. The experiment in a line: NOD2 signaling inhibitors in MDP-stimulated cells, cell-based, uHTS, luminescence (AID 2001). The class given is functional. The note with it: Homo sapiens.
Assay [12] can be described thus: microbe, parasite or virus in culture. The class given is functional. The note with it: Mycobacterium tuberculosis.
Assay [13] in a line: THP-1 cell cytotoxicity, dose response, cytotoxicity control for non-replicating M. tuberculosis project (AID 489025). The class given is functional.
The nature of assay [14]: Luminescence Cell-Based Dose Retest to Confirm Inhibitors of Cancer Stem Cells. [Related pubchem assays (depositor defined):AID2717, AID2721]. Conditions: Homo sapiens. The assay is classed as functional.
Assay [15] in a line: Vero E6 cell cytotoxicity, dose response, cytotoxicity control for non-replicating M. tuberculosis project, secondary assay (AID 492998). The class given is functional, VeroE6. Conditions: Vero C1008.
In the next assay the target is T1, Hexokinase HKDC1 (Homo sapiens, UniProt Q2TB90).
T1 sequence (Q2TB90 whole entry): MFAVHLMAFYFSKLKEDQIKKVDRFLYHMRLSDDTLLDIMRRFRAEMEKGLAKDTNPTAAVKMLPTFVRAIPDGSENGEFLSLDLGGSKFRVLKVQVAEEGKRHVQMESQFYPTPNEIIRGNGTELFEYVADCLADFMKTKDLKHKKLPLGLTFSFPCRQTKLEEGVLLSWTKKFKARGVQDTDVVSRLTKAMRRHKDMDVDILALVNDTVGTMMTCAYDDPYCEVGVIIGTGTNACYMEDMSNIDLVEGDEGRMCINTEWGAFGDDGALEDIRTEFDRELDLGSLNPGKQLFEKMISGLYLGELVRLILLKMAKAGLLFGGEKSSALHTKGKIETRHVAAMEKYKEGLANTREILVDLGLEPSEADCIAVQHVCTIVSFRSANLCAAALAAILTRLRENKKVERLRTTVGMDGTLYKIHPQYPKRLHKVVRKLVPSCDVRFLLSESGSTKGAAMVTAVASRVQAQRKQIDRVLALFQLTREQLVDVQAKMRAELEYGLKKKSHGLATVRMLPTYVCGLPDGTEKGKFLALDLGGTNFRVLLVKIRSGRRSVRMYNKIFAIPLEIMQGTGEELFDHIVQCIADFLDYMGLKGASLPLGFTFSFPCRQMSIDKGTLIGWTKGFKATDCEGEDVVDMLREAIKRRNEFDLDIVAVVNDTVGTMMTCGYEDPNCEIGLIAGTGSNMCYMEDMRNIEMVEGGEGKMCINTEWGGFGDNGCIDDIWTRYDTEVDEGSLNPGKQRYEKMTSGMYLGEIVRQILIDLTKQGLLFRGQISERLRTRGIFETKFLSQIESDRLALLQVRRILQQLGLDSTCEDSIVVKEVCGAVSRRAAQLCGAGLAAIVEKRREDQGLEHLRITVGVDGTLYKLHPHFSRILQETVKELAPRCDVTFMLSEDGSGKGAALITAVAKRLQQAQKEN
The experiment in a line: inhibition of HKDC1 glucose phosphorylation – biochemical, W721R variant, dose response (AID 504729). The class given is functional.

Assay [16] is described as follows: cells. The assay is classed as functional.
Assay [17] is described as follows: reduction of Shn3 3'UTR-driven luciferase in osteoblasts – cell-based, Clone20 osteoblasts, firefly luciferase, cherry-picked, dose response (AID 624132).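 Further: firefly luciferase luminescence from reporter carrying the Shn3 3'UTR in osteoblasts.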 The assay is classed as functional.
The nature of assay [18]: loss of viability in HepG2 cells – cell-based, CellTiter-Glo, cherry-picked, cytotoxicity control for Shn3 inhibitor project, dose response (AID 624134). The assay is classed as functional. Background: In ATP-based viability assays light output follows the ATP content of the culture.
The nature of assay [19]: non-specific 3'UTR reporter inhibition in Clone20-Shn3RL – cell-based, Renilla luciferase, cherry-picked, counter-screen for Shn3 inhibitor project, dose response (AID 624133). The assay is classed as functional.
Assay [20] can be described thus: viability of uninfected HEp-2 cells – cell-based, HTS, cytotoxicity control for RSV inhibitor project, dose response (AID 2410). The assay is classed as functional. The note with it: human respiratory syncytial virus.
The nature of assay [21]: cells.
In assay [22] the test system is HEK293. The experiment in a line: cells. Conditions: Homo sapiens.
Assay [23] has as its system HEK293. The experiment in a line: cells. The note with it: Homo sapiens. The source holds these as a separate data set.
In assay [24] the target is T2, SUMO-activating enzyme (Homo sapiens, UniProt Q9UBT2). The assay is described as follows: blockers of UBC9-mediated SUMO conjugation – biochemical, AlphaScreen, SUMOylation inhibitor project, confirmation (AID 2018). The class given is functional.
T2 sequence (Q9UBE0 whole entry): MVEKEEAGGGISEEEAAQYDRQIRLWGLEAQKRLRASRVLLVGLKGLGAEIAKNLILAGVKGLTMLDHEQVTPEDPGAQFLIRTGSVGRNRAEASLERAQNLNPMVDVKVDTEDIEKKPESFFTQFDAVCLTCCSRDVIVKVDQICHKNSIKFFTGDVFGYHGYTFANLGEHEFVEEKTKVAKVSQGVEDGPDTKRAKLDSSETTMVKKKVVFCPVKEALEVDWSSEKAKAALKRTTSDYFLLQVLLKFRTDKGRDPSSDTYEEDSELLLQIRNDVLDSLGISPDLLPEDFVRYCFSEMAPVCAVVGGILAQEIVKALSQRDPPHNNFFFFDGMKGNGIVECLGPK
T2 sequence (Q9UBT2 whole entry): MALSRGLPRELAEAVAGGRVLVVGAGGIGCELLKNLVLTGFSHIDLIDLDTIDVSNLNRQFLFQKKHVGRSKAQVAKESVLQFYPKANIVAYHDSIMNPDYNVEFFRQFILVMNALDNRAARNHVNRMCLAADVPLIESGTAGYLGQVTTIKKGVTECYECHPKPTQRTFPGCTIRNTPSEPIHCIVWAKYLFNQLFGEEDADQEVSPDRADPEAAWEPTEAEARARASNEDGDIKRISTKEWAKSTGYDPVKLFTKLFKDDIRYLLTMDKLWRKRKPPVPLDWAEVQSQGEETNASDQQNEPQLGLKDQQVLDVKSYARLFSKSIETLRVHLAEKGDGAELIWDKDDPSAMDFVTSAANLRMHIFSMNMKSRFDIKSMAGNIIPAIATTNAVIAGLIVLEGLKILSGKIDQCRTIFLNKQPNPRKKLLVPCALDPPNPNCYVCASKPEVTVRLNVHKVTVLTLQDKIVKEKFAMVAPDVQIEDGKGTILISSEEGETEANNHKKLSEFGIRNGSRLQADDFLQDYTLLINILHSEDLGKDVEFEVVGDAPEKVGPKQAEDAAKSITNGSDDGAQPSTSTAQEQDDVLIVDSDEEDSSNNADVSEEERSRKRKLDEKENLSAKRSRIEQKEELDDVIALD
For another assay, the target named is Beta-galactosidase (Escherichia coli, UniProt Q8VNN2). The experiment in a line: PubChem AID 485352. The class given is functional.
Chain of Beta-galactosidase (Q8VNN2 whole entry): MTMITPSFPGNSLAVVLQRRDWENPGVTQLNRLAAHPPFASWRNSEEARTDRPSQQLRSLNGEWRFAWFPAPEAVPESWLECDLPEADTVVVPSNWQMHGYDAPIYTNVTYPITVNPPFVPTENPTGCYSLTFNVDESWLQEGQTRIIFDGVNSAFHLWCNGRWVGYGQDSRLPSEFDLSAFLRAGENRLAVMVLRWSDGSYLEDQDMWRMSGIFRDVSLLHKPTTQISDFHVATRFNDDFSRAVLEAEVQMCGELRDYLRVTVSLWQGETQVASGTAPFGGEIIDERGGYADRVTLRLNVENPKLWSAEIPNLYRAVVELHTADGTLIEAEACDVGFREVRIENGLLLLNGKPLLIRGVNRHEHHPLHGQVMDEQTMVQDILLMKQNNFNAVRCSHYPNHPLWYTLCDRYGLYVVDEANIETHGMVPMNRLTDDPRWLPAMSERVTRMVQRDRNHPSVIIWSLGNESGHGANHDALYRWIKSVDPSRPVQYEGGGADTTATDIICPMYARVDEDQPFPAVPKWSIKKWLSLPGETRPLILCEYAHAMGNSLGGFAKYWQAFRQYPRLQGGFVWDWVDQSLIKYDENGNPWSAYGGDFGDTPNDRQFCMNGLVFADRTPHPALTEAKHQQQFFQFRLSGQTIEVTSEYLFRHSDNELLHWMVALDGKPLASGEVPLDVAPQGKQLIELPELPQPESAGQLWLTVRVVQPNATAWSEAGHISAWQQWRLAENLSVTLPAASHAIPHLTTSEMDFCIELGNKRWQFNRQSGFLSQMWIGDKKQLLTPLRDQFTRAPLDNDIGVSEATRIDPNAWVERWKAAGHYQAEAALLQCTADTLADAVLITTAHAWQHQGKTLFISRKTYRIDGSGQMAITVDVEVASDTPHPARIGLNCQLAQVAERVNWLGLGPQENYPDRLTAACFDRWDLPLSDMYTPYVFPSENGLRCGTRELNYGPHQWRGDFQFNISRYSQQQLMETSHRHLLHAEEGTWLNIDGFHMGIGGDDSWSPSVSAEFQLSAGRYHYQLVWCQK
In assay [25] the target is T2, SUMO-activating enzyme. The assay is described as follows: blockers of SAE1/SAE2–UBC9 SUMO transfer – biochemical, HTRF, uHTS, primary screen (AID 2006). The class given is protein-complex assay.
Assay [26] addresses T3, Type-1 angiotensin II receptor (Homo sapiens, UniProt P30556).
T3 sequence (P30556 whole entry): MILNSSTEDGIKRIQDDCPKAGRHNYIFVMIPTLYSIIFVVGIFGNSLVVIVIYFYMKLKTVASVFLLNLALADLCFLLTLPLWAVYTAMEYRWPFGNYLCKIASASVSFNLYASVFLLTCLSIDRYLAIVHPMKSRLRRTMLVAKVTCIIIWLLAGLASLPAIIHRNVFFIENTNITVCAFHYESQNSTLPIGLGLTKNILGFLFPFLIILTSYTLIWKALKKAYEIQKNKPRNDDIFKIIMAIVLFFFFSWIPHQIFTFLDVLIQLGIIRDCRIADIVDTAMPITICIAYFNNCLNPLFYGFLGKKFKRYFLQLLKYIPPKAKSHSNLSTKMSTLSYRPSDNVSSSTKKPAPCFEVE
The assay is described as follows: antagonism of angiotensin II type 1 receptor – cell-based, uHTS hits, selectivity assay for APJ receptor antagonist project, dose response (AID 463214).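 Further: antagonist potency against angiotensin II stimulated AT1 response.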 The assay is classed as functional.

Assay [27] concerns the target T4, Mannose-6-phosphate isomerase (Homo sapiens, UniProt P34949).
T4 sequence (P34949 whole entry): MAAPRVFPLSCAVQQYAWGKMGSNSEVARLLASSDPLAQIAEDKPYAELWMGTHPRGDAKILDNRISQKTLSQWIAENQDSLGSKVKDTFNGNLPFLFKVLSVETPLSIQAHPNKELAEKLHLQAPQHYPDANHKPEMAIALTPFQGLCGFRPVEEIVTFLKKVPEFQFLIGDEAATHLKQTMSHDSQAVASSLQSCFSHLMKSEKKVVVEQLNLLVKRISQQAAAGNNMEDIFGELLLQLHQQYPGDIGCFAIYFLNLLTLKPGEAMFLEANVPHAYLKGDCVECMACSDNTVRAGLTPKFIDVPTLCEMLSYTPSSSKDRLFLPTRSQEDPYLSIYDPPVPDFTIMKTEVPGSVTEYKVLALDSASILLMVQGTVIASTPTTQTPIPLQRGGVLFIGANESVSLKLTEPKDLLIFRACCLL
The assay is described as follows: MPI inhibition at elevated mannose 6-phosphate – biochemical, fluorescence intensity, high mannose 6-phosphate, primary screen (AID 1220).

Assay [28] deals with T5, Sentrin-specific protease 8 (Homo sapiens, UniProt Q96LD8).
T5 sequence (Q96LD8 whole entry): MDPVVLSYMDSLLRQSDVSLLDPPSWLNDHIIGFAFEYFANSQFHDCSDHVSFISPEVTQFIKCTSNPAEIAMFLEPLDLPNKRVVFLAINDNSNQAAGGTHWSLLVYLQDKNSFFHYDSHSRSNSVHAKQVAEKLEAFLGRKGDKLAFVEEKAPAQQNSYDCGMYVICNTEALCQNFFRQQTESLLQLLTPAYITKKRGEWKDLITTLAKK
The assay is classed as functional.

The target in assay [29] is T5, Sentrin-specific protease 8. The assay is classed as functional. This is another data set of the same source.

Consider `Cc1ccc(OCC(O)Cn2c(=N)n(CCN3CCCCC3)c3ccccc32)cc1` (centres undefined), for which the half-maximal inhibitory concentration (IC50) in [1] was 1.28 µM (active); in [2], 3.24 µM (active). Also, the EC50 was 3.83 µM (active) in assay [3] and > 60 µM (not active) in [4]. In addition, the CC50 in the assay on Vero [5] is 13.8 µM (active).

For `Oc1nc(SCc2nc(O)c3cnn(-c4ccccc4)c3n2)nc2ccccc12`, in the assay with Vero [6], the IC50 was 1.08 µM (active).

Consider `Cc1cc(NC(=O)CCc2ccc(S(=O)(=O)N3CCOCC3)cc2)n(-c2ccccc2)n1`, for which the 50% inhibitory concentration (IC50) in [1] is 2 µM (active); in assay [2], 1.53 µM (active).

`Cc1nc([N+](=O)[O-])c(Br)n1CC(=O)c1ccc2ccccc2c1`: the IC50 in assay [7] was 1.88 µM (active); in the assay on HEK293 [9] it was 3.46 µM (active); in the assay with HEK293 [10] it was > 20 µM (inactive); in the assay with HEK293 [11], 3.77 µM (active); on Hexokinase HKDC1, 20.6 µM (inactive); in the assay “cells [16]” it was 10.1 µM (active). Also, the EC50 in the assay with HEK293 [8] is 17.6 µM (active). For the same compound, the CC50 in assay [12] is 16 µM (active); in assay [13], 17.4 µM (active); in assay [15], 16.3 µM (active). For the same compound, the concentration at half-maximal activity (AC50) in assay [14] is 4.44 µM (active); in assay [17] it was 10.7 µM (active); in assay [18] it was 63.7 µM (active); in assay [19], 3.22 µM (active).

In the case of `Cc1cc(C(C)(C)C)cc(C)c1CCNC(=O)c1ccc[n+]([O-])c1`, the CC50 in assay [20] was 38.3 µM (active). Further, the IC50 in the assay on Vero [6] was > 25 µM (active); in “cells [21]” it was 38 µM (active).

Regarding `CC(C)(C)N1C(=O)[C@H]2[C@@H](c3ccc(Br)cc3)N3C(=O)N(c4ccccc4)C(=O)[C@@]3(Cc3ccccc3)[C@H]2C1=O`, the EC50 in the assay on HEK293 [22] and in the assay with HEK293 [23] was > 59.6 µM (inactive) each time.

Regarding `O=C1Nc2ccc([N+](=O)[O-])cc2C1=Nc1cccc(CO)c1`, the IC50 at SUMO-activating enzyme [24] is 5.51 µM (active); at SUMO-activating enzyme [25] it was 18.7 µM (active); in assay [26], > 40 µM (not active); in assay [27], 12.4 µM (active); in assay [28], 8.6 µM (active); in assay [29], 7.06 µM (active). Besides, the EC50 on Beta-galactosidase is > 40 µM (inactive).
